# Data published in patent US6878522B2, “Methods for the identification of compounds useful for the treatment of disease states mediated by prostaglandin D2” (priority 2000, dated 2005).
# Legend:
# [1] = system: isolated human eosinophils; assay: Chemotaxis of isolated human eosinophils; type: cell-based
# Procedure: In a specific example of this method, a competitive assay is performed to test compounds for their ability to interrupt the attraction of CRTH2 cells to PGD2. In this method, test compounds are diluted into the bottom wells of the Boyden chemotaxis chamber. A constant amount of PGD2 is also added to this dilution series, at a concentration known to have a chemotactic effect on CRTH2 cells. As a control, at least one aliquot contains only PGD2. Cells expressing CRTH2 are resuspended at 3-3.5×10^6 cells/ml in RPMI 1640 supplemented with 10 mM HEPES and 1 mg/ml bovine serum albumin (Sigma, St. Louis, Mo.), and placed into the upper wells of the chamber. The chambers are incubated for 90-120 minutes at 37° C. in a humidified CO2 incubator. After the incubation period, the number of migrating cells on the lower surface of the membrane filter is counted using light microscopy. The contribution of the test compound to the chemotactic activity of PGD2 is measured by comparing the chemotactic activity of the aliquots containing only PGD2 with the activity of aliquots containing test compound and PGD2. If addition of the test compound to the PGD2 solution results in a […] in the number of cells detected on the lower surface of the membrane relative to the number of cells detected using a solution containing only PGD2, then there is identified an antagonist of PGD2 induction of chemotactic activity of cells expressing CRTH2. In contrast, if the addition of the test compound to the PGD2 solution results in a […] in the number of cells detected on the lower surface of the membrane (relative to the number of cells detected using a solution containing only PGD2), then an […] of PGD2 induction of chemotactic activity of cells expressing CRTH2 is identified.
# The chemotactic response of human T lymphocytes to PGD2, murine MDC and murine mSDF was also assayed. Chemotaxis was determined using a 48-well Boyden chamber (Neuroprobe, Cabin John, Md.), and 3.0 μm polycarbonate filters. Cells were resuspended (3-3.5×10^6 cells/ml) in RPMI 1640 supplemented with 10 mM HEPES and 1 mg/ml bovine serum albumin (Sigma, St. Louis, Mo.), and placed into the upper wells of the chamber. The compound to be tested was placed in the lower wells. The chambers were incubated for 90-120 minutes at 37° C. in a humidified CO2 incubator. At the end of the incubation period, the number of migrating cells on the filter (expressed per high power field) were enumerated microscopically. […] In FIG. 4, the chemotactic response of human basophils to PGD2 and C5a is shown.
# [2] = system: isolated human eosinophils; assay: Reactive oxygen species (ROS) release in isolated human eosinophils; type: cell-based
# Procedure: Another secondary assay is the reactive oxygen species release assay. One measure of PGD2-induced activation of CRTH2 cells, such as eosinophils, is the intracellular release of reactive oxygen species. This can be tested in a reactive oxygen species release assay, or ROS, using lucigenin-dependent chemiluminescence to measure reactive oxygen species release. In this method, freshly isolated eosinophils are prepared, by standard methods, and resuspended at concentration 2-4×10^6 cells/ml in (RPMI; 10 mM HEPES; 1× Pen/Strep; 0.5% FBS) at room temperature. Immediately prior to use, 1 ml of cell suspension is added to 9 ml of buffer, prewarmed to 37° C. for 15 minutes, and added 0.5 ml of 200 mM Lucigenin.
# Test compounds (made as 10,000× DMSO stocks) are diluted in buffer with DMSO (1.5 ul of DMSO/2.5 ml Buffer) and 25 μl/well added to white 96-well culture plate and placed in a 37° C. incubator. Isolated cells (held at room temperature) are diluted with room temperature buffer to 2-4×10^6 cells/ml, and incubated in a water bath at 37° C. for 15 minutes. At 15 minutes, 0.5 ml 200 mM lucigenin (bis-N-Methylacridinium Nitrate; Sigma, St. Louis, Mo.) is added to 10 ml of the cell suspension, mixed, and 100 μl/well is added to the prewarmed microtiter plate. The plate is returned to 37° C. for 5 minutes, at which time 25 μl of stimulus is added) The plate is read in the luminometer for 8 cycles. The luminescence of test compounds can be tested in the presence of PGD2, relative to a control sample containing PGD2 alone. A compound that interferes with the ability of PGD2 to result in intracellular reactive oxygen species release in CRTH2 cells, is a candidate for a CRTH2 antagonist.
# [3] = system: isolated human eosinophils; assay: [Ca2+]i mobilization in isolated human eosinophils; type: cell-based
# Text: Calcium mobilization can be detected and measured by flow cytometry, and by labeling with fluorescent dyes that are trapped intracellularly. […] The ratio of fluorescence produced by the calcium-bound dye to that produce by the unbound dye is used to estimate the intracellular calcium concentration. In one embodiment, for example, the following method can be used. Cells that express CRTH2 are collected, and resuspended in fresh media at ˜2×10^5/ml the day before performing the calcium flux assay. Cells are incubated at 37° C. for not longer than 20-30 minutes, and then spun down and resuspended in 50 ml fresh PTI buffer (Hank's Buffer, pH 7.2-7.4; 10 mM Hepes; 1.6 mM CaCl2) containing Indo-1 AM, pre-warmed to 37° C., at a concentration of 10 million per ml. Cells are excited, and fluorescence is measured using a fluorimeter (Photon Technology Corporation, International). After the readout has stabilized, the time axis is reset, and PGD2 is added at a specific time point (e.g., 20 seconds). After response, the following reagents are added to the cuvette, to release and chelate total calcium, in the following order: 20 μl of 18% Triton X-100, 20 μl of 3M Tris, pH 8.5, and 20 μl of 0.5 M EGTA, pH 8.5. The experiment is repeated in the presence and the absence of a test compound. […] Therefore, in the presence of an […] test compound, the EC50 would be expected to be higher than this value, whereas in the presence of an agonist test compound, the EC50 would be expected to decrease.
# [4] = molecular target: T1, human eosinophil [3H]-PGD2 binding site (Homo sapiens, UniProt Q9Y5Y4); assay: [3H]PGD2 binding in isolated human eosinophils; settings: number in brackets not defined
# T1 construct: endogenous in cells; host or cells: isolated human eosinophils
# T1 sequence (Q9Y5Y4 1-395): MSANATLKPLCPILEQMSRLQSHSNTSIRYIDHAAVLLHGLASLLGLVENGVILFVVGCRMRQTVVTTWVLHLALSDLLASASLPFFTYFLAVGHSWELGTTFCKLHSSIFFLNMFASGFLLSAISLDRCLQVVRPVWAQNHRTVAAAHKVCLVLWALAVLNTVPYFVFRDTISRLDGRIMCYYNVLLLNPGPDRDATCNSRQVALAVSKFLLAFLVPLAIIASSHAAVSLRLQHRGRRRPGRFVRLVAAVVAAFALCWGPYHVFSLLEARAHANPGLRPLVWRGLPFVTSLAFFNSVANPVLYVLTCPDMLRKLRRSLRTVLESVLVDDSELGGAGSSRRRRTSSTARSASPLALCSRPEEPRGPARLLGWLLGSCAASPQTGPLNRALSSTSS
# Text: As is shown in FIG. 1B, the effects of the prostaglandins and analogs on human eosinophil [^3H]-PGD2 binding site and eosinophil functional responses have the same order of potency (i.e., PGD2>PGF2a>>BW245C).
EC50 [1] [nM],EC50 [2] [nM],EC50 [3] [nM],IC50 [4] [nM],SMILES
> 1000,> 1000,> 1000,> 100000,O=C(O)CCCCCCC1C(=O)NC(=O)N1CCC(O)C1CCCCC1 (stereo not shown) [BW-245C]
> 100,> 100,> 1000,3300,CCCCC[C@H](O)/C=C/[C@H]1[C@H](O)CC(=O)[C@@H]1C/C=C\CCCC(=O)O [PGE2]
> 100,> 1000,> 1000,1500,CCCCC[C@H](O)/C=C/[C@@H]1[C@@H](C/C=C\CCCC(=O)O)[C@@H](O)C[C@H]1O [PGF2α]

SMILES,EC50 [1] [nM],EC50 [2] [nM],EC50 [3] [nM],IC50 [4] [nM]
"CCCCC[C@H](O)/C=C/[C@H]1C(=O)C[C@H](O)[C@@H]1C/C=C\CCCC(=O)O [PGD2, prostaglandin D2]",3,2,30,25
